The values that follow are results of earlier work, collected in publication PMC11050823, “The Cyclic Imine Core Common to the Marine Macrocyclic Toxins Is Sufficient to Dictate Nicotinic Acetylcholine Receptor Antagonism” (Marine Drugs, 2024).

In the data set the target is nicotinic acetylcholine receptors. The arrangement: method as in PMID 35049904. To be noted: cited from earlier work.

For `CN(C)C1CSSC1` [nereistoxin, N,N-dimethyl-1,2-dithiolan-4-amine], the “IC50 values as nicotinic antagonist” value is on record as “sub-millimolar”.
